Data as given in patent US5101059A, “Amino acid protecting groups” (Research Corporation Technologies, Inc., priority 1989, dated 1992).

Tests used:
Type in all cases: physicochemical
[1] = Solubility of TMS-Fmoc and dichloro-Xmoc derivatives versus Fmoc analogs
Method: This latter property is particularly important when peptide synthesis is carried out in solution.

[2] = General statements on cleavage by piperidine or fluoride ion
[3] = Base deblocking and stability of 9-xanthenylmethyl and 9,10-dihydro-9-anthracenylmethyl derivatives; settings: room temperature; for time for evidence for initiation of the deblocking: piperidine 100 eq.; for time for evidence for initiation of the deblocking / time needed to complete the deblocking: DMF; for time needed to complete the deblocking: DBU 100 eq.
Method: 1. Deblocking of Xmoc-PCA in 1,5,9-Triazabicyclo[4,4,0]dec-5-ene Solution: To a solution of 7.90 mg (0.0216 mmol) of Xmoc-PCA in 0.6 mL of pyridine was added 0.15 g (1.078 mmol 50 eq.) of 1,5,9-triazabicyclo[4,4,0]dec-5-ene (TBD). The mixture was stirred at room temperature and monitored by TLC with an eluant consisting of Skelly B--EtOAc (3:1). Complete deblocking had occurred after 25 minutes.
2. Base Deblocking of 9-Xanthenylmethyl Phenylacetate: a. In Piperdine Solution: To a solution of 13.39 mg of 9-XM-phenylacetate in 1.6 mL of DMF was added 0.4 mL (100 eq.) of piperidine. The mixture was stirred at room temperature. […] In DBU Solution: To a solution of 6.36 mg of 9-XM-phenylacetate in 0.9 mL of DMF was added 0.3 mL of 1,8-diazabicyclo[5,4,0]-undec-7-ene (DBU) (100 eq.). The mixture was stirred at room temperature. […] In TBD Solution: To a solution of 7.91 mg of 9-XM-phenylacetate in 0.3 mL of pyridine was added 100 mg (30 eq.) of 1,5,9-triazabicyclo[4,4,0]dec-5-ene. The mixture was stirred at room temperature.
1. General Procedure for Studying the Stabilities of DHAmoc-PCA, Xmoc-PCA, and DC-Xmoc-PCA in Piperidine Solution To a solution of urethane (0.0294 mmol) in 1.2 mL of DMF was added 0.3 mL (2.94 mmol, 100 eq.) of piperidine. The mixture was stirred at room temperature and monitored by TLC with an eluant consisting of Skelly B--EtOAc (3:1). Evidence for initiation of the deblocking required 2 minutes for DC-Xmoc-PCA, 3.5 hours for Xmoc-PCA, and 7 hours for DHAmoc-PCA.
2. General Procedure for Studying the Deblocking of Xmoc-PCA and DHAmoc-PCA in DBU Solution: To a solution of urethane (0.0324 mmol) in 0.5 mL of DMF was added 0.5 mL (3.24 mmol, 100 eq.) of 1,8-diazabicyclo[5,4,0]undec-7-ene. The mixture was stirred at room temperature and monitored by TLC with the eluant consisting of Skelly B--EtOAc (3:1). The time needed to complete the deblocking was 3.5 hours for Xmoc-PCA, and 6 hours for DHAmoc-PCA.

[4] = Deblocking of R-Fmoc-aniline by trifluoroacetic acid; settings: room temperature
Excerpt: 1. General Procedure for Studying the stability of R-Fmoc-analine (R=TMS, DMPS, DPMS, DT-TMS, TIPS) in Trifluoroacetic Acid: To a solution of urethane (0.026 mmol) in […].) of trifluoroacetic acid. The mixture was stirred at room temperature and the course of the reaction was monitored by TLC with an eluant consisting of Skelly B--dichloromethane (1:1) to note the time needed for complete deblocking of the urethanes.

[5] = Deblocking of R-Fmoc-aniline by fluoride ion; settings: tetra-n-butylammonium chloride 3.0 eq., KF dihydrate 4.1 eq., acetonitrile, room temperature
Method: 3. General Procedure for Studying the Deblocking of Urethanes R-Fmoc-aniline (R=TMS, DMPS, DPMS, TIPS, DT-TMS) by Reaction with Fluoride Ion: To a solution of urethane (0.0513 mmol) in 0.7 mL of acetonitrile was added 45 mg (0.154 mmol, 3.0 eq.) of tetra-n-butyl-ammonium chloride and 20 mg (0.213 mmol, 4.1 eq.) of potassium fluoride dihydrate. The mixture was stirred at room temperature, the reaction being monitored by TLC with an eluant consisting of Skelly B--CH2 Cl2 (1:1).

[6] = Base deblocking of R-Fmoc-aniline by various amines; settings: for Time for Complete Deblocking / Time for Complete Scavenging of Dibenzofulvene: room temperature
Method: 2. General Procedure for Studying the Base Deblocking of the Urethanes R-Fmoc-aniline (R=TMS, DMPS, DPMS, DT-TMS, TIPS): A solution of urethane (0.05 mmol) in a sample of redistilled base (5 mmol, 100 eq.) was allowed to stand at room temperature. The reaction was monitored periodically by TLC with an eluant consisting of Skelly B--CH2 Cl2 (1:1). No reaction occurred according to the TLC test for urethanes having R=TIPS in the case of any of the bases tested after 24 hours.

[7] = Base deblocking of substituted urethanes (U-PCA) by various amines; settings: dichloromethane, room temperature
Excerpt: 1. General Procedure for Studying the Base Deblocking of the Urethanes Fmoc-PCA, BTS-Fmoc-PCA, DT-Fmoc-PCA, and TMS-Fmoc-PCA: A mixture of urethane (0.05 mmol) in a solution prepared from an equal volume of base (2.5 mmol, 50 eq.) and dichloromethane was stirred at room temperature. The course of the reaction was monitored by TLC with an eluant consisting of Skelly B--ether (3:1).

[8] = Base deblocking of FM-Fmoc-PCA; settings: room temperature
Method: A. Base Deblocking of FM-Fmoc-PCA: 1. In Piperidine Solution: To a solution of 24.96 mg of FM-Fmoc-PCA in 0.5 mL of DMF was added 0.5 mL (100 eq.) of piperidine. The mixture was stirred at room temperature. […] 2. In DBN Solution: To a solution of 12.81 mg of FM-Fmoc-PCA in 0.15 mL of DMF was added 0.15 mL (50 eq.) of 1,5-diazabicyclo[4,3,0]nonene-7 (DBN). The mixture was stirred at room temperature. […] 3. In DBU Solution: To a solution of 10.58 mg of FM-Fmoc-PCA in 0.15 mL of DMF was added 0.15 mL (50 eq.) of 1,8-diazabicyclo[5,4,0]undec-7-ene (DBU). The mixture was stirred at room temperature. […] 4. In TBD: To a solution of 18.95 mg of FM-Fmoc-PCA in 0.2 mL of DMF and 0.2 mL of pyridine was added 100 mg (20 eq.) of 1,5,9-triazabicyclo[4,4,0]dec-5-ene (TBD). The mixture was stirred at room temperature.

[9] = morpholine 50 eq., significant aminodibenzofulvene type adduct formed
[10] = piperidine 50 eq., significant aminodibenzofulvene type adduct formed

For `O=C(Nc1ccc(Cl)cc1)OCC1c2cc(Cl)ccc2Oc2ccc(Cl)cc21` [2,7-dichloro analog of Xmoc], the “solubility compared with Fmoc derivatives” value [1] was “greater solubility than Fmoc derivatives” and the “deblocking by / stability to piperidine” value [2] was “deblocked by piperidine as easily as the Fmoc group”.
In the case of `O=C(Nc1ccc(Cl)cc1)OCC1c2cc(Cl)ccc2Oc2ccc(Cl)cc21` [DC-Xmoc-PCA, 2,7-Dichloro-9-xanthenylmethyl p-Chlorocarbanilate], the “time for evidence for initiation of the deblocking” value (from here on “time for evidence for initiation”) [3] is reported as 0.033 h.
In the case of `O=C(Nc1ccc(Cl)cc1)OCC1c2ccccc2Cc2ccccc21` [DHAmoc-PCA, 3,10-Dihydro-9-anthracenylmethyl p-Chlorocarbanilate], the “time needed to complete the deblocking” value [3] is reported as 6 h and the “time for evidence for initiation” value [3] is reported as 7 h.
For `C[Si](C)(c1ccccc1)C1(COC(=O)Nc2ccccc2)c2ccccc2-c2ccccc21` [DMPS, 9-Dimethyl(phenyl)silyl-9-fluorenylmethyl Carbanilate], the “Time for Complete Deblocking by Trifluoroacetic Acid” value (“Time … by Trifluoroacetic Acid” for short) [4] was 8 h, the “Time for Complete Deblocking by Fluoride Ion” value (“Time … by Fluoride Ion” below) [5] was less than 2 min and the “Time for Complete Deblocking” value ([6]; morpholine 100 eq.) was 0.783 h. The “Time for Complete Scavenging of Dibenzofulvene” value ([6]; morpholine 100 eq.) was 60 min, the “Time for Complete Deblocking” value ([6]; piperidine 100 eq.) was 0.667 h and the “Time for Complete Scavenging of Dibenzofulvene” value ([6]; piperidine 100 eq.) was 220 min. For the same compound, the “Time for Complete Deblocking” value ([6]; t-butylamine 100 eq.) was 3.5 h.
With `C[Si](c1ccccc1)(c1ccccc1)C1(COC(=O)Nc2ccccc2)c2ccccc2-c2ccccc21` [DPMS, 9-Diphenyl(methyl)silyl-9-fluoroenylmethyl Carbanilate] the “Time … by Trifluoroacetic Acid” value [4] was 18 h, the “Time … by Fluoride Ion” value [5] was less than 2 min and the “Time for Complete Deblocking” value ([6]; morpholine 100 eq.) was 0.583 h. For the same compound, the “Time for Complete Scavenging of Dibenzofulvene” value ([6]; morpholine 100 eq.) was 51 min, the “Time for Complete Deblocking” value ([6]; piperidine 100 eq.) was 0.467 h and the “Time for Complete Scavenging of Dibenzofulvene” value ([6]; piperidine 100 eq.) was 150 min. The “Time for Complete Deblocking” value ([6]; t-butylamine 100 eq.) was 1.5 h.
For `CC(C)(C)c1ccc2c(c1)C(COC(=O)Nc1ccc(Cl)cc1)c1cc(C(C)(C)C)ccc1-2` [DT-Fmoc-PCA, 2,7-Di-tert-butyl-9-Fluorenylmethyl p-Chlorocarbanilate], the “Time for Complete Deblocking” value ([7]; ethanolamine 50 eq.) was 4 h, the “Time for Complete Scavenging of Dibenzofulvene Analogs” value (shortened to “Time … of Dibenzofulvene Analogs”) ([7]; morpholine 50 eq.) was 13 hr and the “Time for Complete Deblocking” value [7, 9] was 10 h. For the same compound, the “Time … of Dibenzofulvene Analogs” value ([7]; piperidine 50 eq.) was 84 min, the “Time for Complete Deblocking” value [7, 10] was 0.2 h and the “Time for Complete Deblocking” value ([7]; t-butylamine 50 eq.) was 10 h.
For `CC(C)(C)c1ccc2c(c1)C(COC(=O)Nc1ccccc1)([Si](C)(C)C)c1cc(C(C)(C)C)ccc1-2` [DT-TMS, 2,7-Di-tert-butyl-9-trimethylsilyl-9-fluorenylmethyl Carbanilate], the “Time … by Trifluoroacetic Acid” value [4] was 0.833 h, the “Time … by Fluoride Ion” value [5] was 10 min and the “Time for Complete Deblocking” value ([6]; morpholine 100 eq.) was 16 h. The “Time for Complete Scavenging of Dibenzofulvene” value ([6]; morpholine 100 eq.) was 1020 min, the “Time for Complete Deblocking” value ([6]; piperidine 100 eq.) was 13 h and the “Time for Complete Scavenging of Dibenzofulvene” value ([6]; piperidine 100 eq.) was 1080 min. The “Time for Complete Deblocking” value ([6]; t-butylamine 100 eq.) was greater than 24 h.
In the case of `O=C(Nc1ccc(Cl)cc1)OCC1(CC2c3ccccc3-c3ccccc32)c2ccccc2-c2ccccc21` [FM-Fmoc-PCA, 9-(9'-Fluorenylmethyl)-9-fluorenylmethyl p-Chlorocarbanilate], the “time at which deblocking had begun” value ([8]; DBN 50 eq., DMF) is reported as no more than 10 min, the “Time for Complete Deblocking” value ([8]; DBN 50 eq., DMF, still not complete) is reported as greater than 24 h and the “Time for Complete Deblocking” value ([8]; DBU 50 eq., DMF) is reported as 12 h. For the same compound, the “time at which deblocking had begun” value ([8]; DBU 50 eq., DMF) was no more than 10 min, the start of deblocking ([8]; TBD 20 eq., DMF and pyridine) was “immediately” and the “time for complete deblocking-scavenging reaction” value ([8]; TBD 20 eq., DMF and pyridine) was 1 h. The “time at which first deblocking was detected” value ([8]; piperidine 100 eq., DMF) was 12 h.
For `O=C(Nc1ccc(Cl)cc1)OCC1c2ccccc2-c2ccccc21` [Fmoc-PCA, 9-fluorenylmethyl p-chlorocarbanilate, reference compound], the “Time for Complete Deblocking” value ([7]; ethanolamine 50 eq.) was 0.75 h, the “Time … of Dibenzofulvene Analogs” value ([7]; morpholine 50 eq.) was 2.5 hr and the “Time for Complete Deblocking” value [7, 9] was 1.25 h. The “Time … of Dibenzofulvene Analogs” value ([7]; piperidine 50 eq.) was 68 min, the “Time for Complete Deblocking” value [7, 10] was less than 0.05 h and the “Time for Complete Deblocking” value ([7]; t-butylamine 50 eq.) was 5 h.
For `CC(C)[Si](C(C)C)(C(C)C)C1(COC(=O)Nc2ccccc2)c2ccccc2-c2ccccc21` [TIPS, 9-Triisopropylsilyl-9-fluorenylmethyl Carbanilate], the “Time … by Trifluoroacetic Acid” value [4] was 0.567 h, the “Time … by Fluoride Ion” value [5] was 1080 min and the “reaction with amine bases (TLC)” value ([6]; any of the bases tested, 100 eq., 24 hours) was “no reaction was detected”.
With `O=C(Nc1ccc(Cl)cc1)OCC1c2ccccc2Oc2ccccc21` [Xmoc-PCA, 9-Xanthenylmethyl p-Chlorocarbanilate] the “time needed to complete the deblocking” value [3] was 3.5 h, the “Time for Complete Deblocking” value ([3]; TBD 50 eq., pyridine) was 25 min and the “time for evidence for initiation” value [3] was 3.5 h.
With `O=C(Nc1ccc(Cl)cc1)OCC1c2ccccc2Oc2ccccc21` [Xmoc] the “deblocking by / stability to piperidine” value [2] was “stable to piperidine”.
For `CC(C)[Si](C(C)C)(C(C)C)C1(COC(=O)Nc2ccccc2)c2ccccc2-c2ccccc21` [derivative F], the “cleavage by fluoride ion” value ([2]; inorganic base, fluoride ion) was “cleaved by the inorganic base, fluoride ion” and the “deblocking by / stability to piperidine” value [2] was “stable to piperidine”.
